Measurements from paper PMC9475448, “What a difference a methylene makes: replacing Glu with Asp or Aad in the Lys-urea-Glu pharmacophore of PSMA-targeting radioligands to reduce kidney and salivary gland uptake” (Theranostics, 2022).
Several values for one entry are separate records, joined by “and”; a condition that tells them apart may be missing. Identical values can stand only once.

Experiments:
PSMA = molecular target: T1, PSMA (Homo sapiens, UniProt Q04609); experiment: In vitro competition binding assay using LNCaP cells and [18F]DCFPyL as radioligand; conditions: displacement of [18F]DCFPyL from LNCaP cells, n = 3; read-out: PSMA binding affinity (Ki)
T1 construct: endogenous in cells; host or cells: LNCaP prostate cancer cells
T1 sequence (Q04609 whole entry): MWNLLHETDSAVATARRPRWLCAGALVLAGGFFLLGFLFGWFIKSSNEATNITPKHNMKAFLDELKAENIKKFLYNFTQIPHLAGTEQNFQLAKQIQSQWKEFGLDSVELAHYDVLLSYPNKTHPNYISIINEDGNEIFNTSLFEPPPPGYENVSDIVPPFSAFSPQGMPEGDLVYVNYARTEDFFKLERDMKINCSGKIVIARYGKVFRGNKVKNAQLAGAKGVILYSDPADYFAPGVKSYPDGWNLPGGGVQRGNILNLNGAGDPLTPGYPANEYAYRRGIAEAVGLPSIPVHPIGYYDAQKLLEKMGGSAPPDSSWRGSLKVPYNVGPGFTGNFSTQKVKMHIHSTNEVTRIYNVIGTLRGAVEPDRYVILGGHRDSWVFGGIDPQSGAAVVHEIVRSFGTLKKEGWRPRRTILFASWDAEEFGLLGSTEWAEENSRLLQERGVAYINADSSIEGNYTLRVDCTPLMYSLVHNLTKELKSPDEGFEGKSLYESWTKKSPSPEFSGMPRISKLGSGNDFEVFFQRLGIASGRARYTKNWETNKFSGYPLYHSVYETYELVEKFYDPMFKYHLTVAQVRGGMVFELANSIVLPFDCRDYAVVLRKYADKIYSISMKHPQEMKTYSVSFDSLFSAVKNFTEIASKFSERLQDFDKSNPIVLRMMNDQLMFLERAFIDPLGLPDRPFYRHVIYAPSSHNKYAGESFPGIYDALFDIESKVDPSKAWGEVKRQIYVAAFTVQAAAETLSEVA
Protocol: The binding assays were conducted following previously published procedures using LNCaP cells and [^18F]DCFPyL as the radioligand [17]-[19]. Briefly, LNCaP cells (400,000/well) were plated onto a 24-well poly-D-lysine coated plate for 48 h. Growth media was removed and replaced with HEPES buffered saline (50 mM HEPES, pH 7.5, 0.9% sodium chloride) and the cells were incubated for 1 h at 37 °C. [^18F]DCFPyL (0.1 nM) was added to each well (in triplicate) containing various concentrations (0.5 mM - 0.05 nM) of tested nonradioactive Ga-complexed compounds. Non-specific binding was determined in the presence of 10 µM non-radiolabeled DCFPyL. The assay mixtures were further incubated for 1 h at 37 °C with gentle agitation. Then, the buffer and radioligand were removed, and cells were washed twice with cold HEPES buffered saline. To harvest the cells, 400 µL of 0.25 % trypsin solution was added to each well. Radioactivity was measured on a PerkinElmer (Waltham, MA) Wizard2 2480 automatic gamma counter. Data analyses of Ki were performed using the nonlinear regression algorithm of GraphPad (San Diego, CA) Prism 7 software.

LNCaP tumor-bearing mice [1] = experiment: Radioligand therapy study in LNCaP tumor-bearing NRG mice; conditions: 500 pmol nonradioactive
LNCaP tumor-bearing mice [2] = experiment: Ex vivo biodistribution of 68Ga-labeled ligands in LNCaP tumor-bearing NSG mice
[3] = 1 h blocked, co-injected with DCFPyL (0.5 mg)
[4] = 1 h post-injection, listed as [68Ga]Ga-HTK03149
[5] = co-injection of DCFPyL (0.5 mg), 1 h post-injection
[6] = 1 h post-injection, listed as [68Ga]Ga-HTK03161

O=C([O-])CN1CCN(CC(=O)[O-])CCN(CC(=O)NCC2CCC(C(=O)NC(Cc3c4ccccc4cc4ccccc34)C(=O)NCCCCC(NC(=O)NC(CC(=O)O)C(=O)O)C(=O)O)CC2)CCN(CC(=O)[O-])CC1.[Ga+3] (stereo not drawn) [Ga-HTK03161]
Ki (PSMA): 3.88 ± 0.66 nM

O=C([O-])CN1CCN(CC(=O)[O-])CCN(CC(=O)NCC2CCC(C(=O)NC(Cc3c4ccccc4cc4ccccc34)C(=O)NCCCCC(NC(=O)NC(CCCC(=O)O)C(=O)O)C(=O)O)CC2)CCN(CC(=O)[O-])CC1.[Lu+3] (stereo not drawn) [Lu-HTK03149]
Median survival (LNCaP tumor-bearing mice [1]): 18 days
Ki (PSMA): 1.57 ± 0.42 nM

O=C([O-])CN1CCN(CC(=O)[O-])CCN(CC(=O)NCC2CCC(C(=O)NC(Cc3c4ccccc4cc4ccccc34)C(=O)NCCCCC(NC(=O)NC(CCCC(=O)O)C(=O)O)C(=O)O)CC2)CCN(CC(=O)[O-])CC1.[68Ga+3] (stereo not drawn) [[^68Ga]Ga-HTK03149]
Adrenal glands uptake (LNCaP tumor-bearing mice [2]; [3]): 0.22 ± 0.03 %IA/g
Blood uptake (LNCaP tumor-bearing mice [2]; [3]): 0.67 ± 0.04 %IA/g
Blood:Salivary gland uptake ratio (LNCaP tumor-bearing mice [2]; [3]): 4.80 ± 0.54
Bone uptake (LNCaP tumor-bearing mice [2]; [3]): 0.07 ± 0.01 %IA/g
Brain uptake (LNCaP tumor-bearing mice [2]; [3]): 0.02 ± 0.00 %IA/g
Fat uptake (LNCaP tumor-bearing mice [2]; [3]): 0.08 ± 0.01 %IA/g
Heart uptake (LNCaP tumor-bearing mice [2]; [3]): 0.19 ± 0.01 %IA/g
Intestines uptake (LNCaP tumor-bearing mice [2]; [3]): 0.21 ± 0.04 %IA/g
Kidneys uptake (LNCaP tumor-bearing mice [2]; [3]): 1.93 ± 0.39 %IA/g
Lacrimal glands uptake (LNCaP tumor-bearing mice [2]; [3]): 0.14 ± 0.08 %IA/g
Liver uptake (LNCaP tumor-bearing mice [2]; [3]): 0.22 ± 0.03 %IA/g
Lungs uptake (LNCaP tumor-bearing mice [2]; [3]): 0.49 ± 0.03 %IA/g
Muscle uptake (LNCaP tumor-bearing mice [2]; [3]): 0.08 ± 0.01 %IA/g
Pancreas uptake (LNCaP tumor-bearing mice [2]; [3]): 0.12 ± 0.01 %IA/g
Salivary glands uptake (LNCaP tumor-bearing mice [2]; [3]): 0.14 ± 0.01 %IA/g
Spleen uptake (LNCaP tumor-bearing mice [2]; [3]): 0.15 ± 0.04 %IA/g
Stomach uptake (LNCaP tumor-bearing mice [2]; [3]): 0.04 ± 0.00 %IA/g
Testes uptake (LNCaP tumor-bearing mice [2]; [3]): 0.19 ± 0.02 %IA/g
Thyroid uptake (LNCaP tumor-bearing mice [2]; [3]): 0.18 ± 0.01 %IA/g
Tumor uptake (LNCaP tumor-bearing mice [2]; [3]): 0.77 ± 0.06 %IA/g
Tumor:Blood uptake ratio (LNCaP tumor-bearing mice [2]; [3]): 1.16 ± 0.13
Tumor:Kidney uptake ratio (LNCaP tumor-bearing mice [2]; [3]): 0.41 ± 0.09
Tumor:Muscle uptake ratio (LNCaP tumor-bearing mice [2]; [3]): 7.18 ± 3.58
Tumor:Salivary gland uptake ratio (LNCaP tumor-bearing mice [2]; [3]): 5.53 ± 0.39
Adrenal glands uptake (LNCaP tumor-bearing mice [2]; 1 h post-injection): 0.33 ± 0.11 %IA/g
Blood uptake (LNCaP tumor-bearing mice [2]; 1 h post-injection): 0.70 ± 0.17 %IA/g
Blood:Salivary gland uptake ratio (LNCaP tumor-bearing mice [2]; 1 h post-injection): 3.21±0.64
Bone uptake (LNCaP tumor-bearing mice [2]; 1 h post-injection): 0.11 ± 0.04 %IA/g
Brain uptake (LNCaP tumor-bearing mice [2]; 1 h post-injection): 0.02 ± 0.00 %IA/g
Fat uptake (LNCaP tumor-bearing mice [2]; 1 h post-injection): 0.17 ± 0.15 %IA/g
Heart uptake (LNCaP tumor-bearing mice [2]; 1 h post-injection): 0.21 ± 0.03 %IA/g
Intestines uptake (LNCaP tumor-bearing mice [2]; 1 h post-injection): 0.24 ± 0.05 %IA/g
Kidneys uptake (LNCaP tumor-bearing mice [2]; 1 h post-injection): 4.15±1.46 %IA/g
Lacrimal glands uptake (LNCaP tumor-bearing mice [2]; 1 h post-injection): 0.15 ± 0.09 %IA/g
Liver uptake (LNCaP tumor-bearing mice [2]; 1 h post-injection): 0.25 ± 0.06 %IA/g
Lungs uptake (LNCaP tumor-bearing mice [2]; 1 h post-injection): 0.53 ± 0.09 %IA/g
Muscle uptake (LNCaP tumor-bearing mice [2]; 1 h post-injection): 0.11 ± 0.04 %IA/g
Pancreas uptake (LNCaP tumor-bearing mice [2]; 1 h post-injection): 0.13 ± 0.02 %IA/g
Salivary glands uptake (LNCaP tumor-bearing mice [2]; 1 h post-injection): 0.22±0.06 %IA/g
Spleen uptake (LNCaP tumor-bearing mice [2]; 1 h post-injection): 0.27 ± 0.05 %IA/g
Stomach uptake (LNCaP tumor-bearing mice [2]; 1 h post-injection): 0.07 ± 0.01 %IA/g
Testes uptake (LNCaP tumor-bearing mice [2]; 1 h post-injection): 0.23 ± 0.13 %IA/g
Thyroid uptake (LNCaP tumor-bearing mice [2]; 1 h post-injection): 0.20 ± 0.05 %IA/g
Tumor uptake (LNCaP tumor-bearing mice [2]; 1 h post-injection): 19.1±6.37 %IA/g
Tumor:Blood uptake ratio (LNCaP tumor-bearing mice [2]; 1 h post-injection): 29.5±15.8
Tumor:Kidney uptake ratio (LNCaP tumor-bearing mice [2]; 1 h post-injection): 5.44±3.88 and > 5.0
Tumor:Muscle uptake ratio (LNCaP tumor-bearing mice [2]; 1 h post-injection): 185±79.6
Tumor:Salivary gland uptake ratio (LNCaP tumor-bearing mice [2]; 1 h post-injection): 97.3±59.2
Kidneys uptake (LNCaP tumor-bearing mice [2]; [4]): 4.15 ± 1.46 %IA/g
Salivary glands uptake (LNCaP tumor-bearing mice [2]; [4]): 0.22 ± 0.06 %IA/g
Tumor uptake (LNCaP tumor-bearing mice [2]; [4]): 19.1 ± 6.37 %IA/g
Reduction of average uptake in LNCaP tumor xenografts by blocking (LNCaP tumor-bearing mice [2]; [5]): 96%
Reduction of average uptake in kidneys by blocking (LNCaP tumor-bearing mice [2]; [5]): 53%
Reduction of average uptake in salivary glands by blocking (LNCaP tumor-bearing mice [2]; [5]): 36%

O=C([O-])CN1CCN(CC(=O)[O-])CCN(CC(=O)NCC2CCC(C(=O)NC(Cc3c4ccccc4cc4ccccc34)C(=O)NCCCCC(NC(=O)NC(CC(=O)O)C(=O)O)C(=O)O)CC2)CCN(CC(=O)[O-])CC1.[68Ga+3] (stereo not drawn) [[^68Ga]Ga-HTK03161]
Adrenal glands uptake (LNCaP tumor-bearing mice [2]; 1 h post-injection): 0.41 ± 0.07 %IA/g
Blood uptake (LNCaP tumor-bearing mice [2]; 1 h post-injection): 1.13 ± 0.19 %IA/g
Blood:Salivary gland uptake ratio (LNCaP tumor-bearing mice [2]; 1 h post-injection): 5.08±0.62
Bone uptake (LNCaP tumor-bearing mice [2]; 1 h post-injection): 0.11 ± 0.02 %IA/g
Brain uptake (LNCaP tumor-bearing mice [2]; 1 h post-injection): 0.02 ± 0.00 %IA/g
Fat uptake (LNCaP tumor-bearing mice [2]; 1 h post-injection): 0.15 ± 0.04 %IA/g
Heart uptake (LNCaP tumor-bearing mice [2]; 1 h post-injection): 0.32 ± 0.05 %IA/g
Intestines uptake (LNCaP tumor-bearing mice [2]; 1 h post-injection): 0.31 ± 0.09 %IA/g
Kidneys uptake (LNCaP tumor-bearing mice [2]; 1 h post-injection): 4.41±1.26 %IA/g
Lacrimal glands uptake (LNCaP tumor-bearing mice [2]; 1 h post-injection): 0.12 ± 0.06 %IA/g
Liver uptake (LNCaP tumor-bearing mice [2]; 1 h post-injection): 0.28 ± 0.05 %IA/g
Lungs uptake (LNCaP tumor-bearing mice [2]; 1 h post-injection): 0.75 ± 0.13 %IA/g
Muscle uptake (LNCaP tumor-bearing mice [2]; 1 h post-injection): 0.15 ± 0.04 %IA/g
Pancreas uptake (LNCaP tumor-bearing mice [2]; 1 h post-injection): 0.18 ± 0.03 %IA/g
Salivary glands uptake (LNCaP tumor-bearing mice [2]; 1 h post-injection): 0.23±0.05 %IA/g
Spleen uptake (LNCaP tumor-bearing mice [2]; 1 h post-injection): 0.27 ± 0.06 %IA/g
Stomach uptake (LNCaP tumor-bearing mice [2]; 1 h post-injection): 0.10 ± 0.04 %IA/g
Testes uptake (LNCaP tumor-bearing mice [2]; 1 h post-injection): 0.54 ± 0.51 %IA/g
Thyroid uptake (LNCaP tumor-bearing mice [2]; 1 h post-injection): 0.29 ± 0.05 %IA/g
Tumor uptake (LNCaP tumor-bearing mice [2]; 1 h post-injection): 12.7±1.91 %IA/g
Tumor:Blood uptake ratio (LNCaP tumor-bearing mice [2]; 1 h post-injection): 11.4 ± 1.73
Tumor:Kidney uptake ratio (LNCaP tumor-bearing mice [2]; 1 h post-injection): 3.03 ± 0.84
Tumor:Muscle uptake ratio (LNCaP tumor-bearing mice [2]; 1 h post-injection): 89.4 ± 36.1
Tumor:Salivary gland uptake ratio (LNCaP tumor-bearing mice [2]; 1 h post-injection): 57.2 ± 7.11
Kidneys uptake (LNCaP tumor-bearing mice [2]; [6]): 4.41 ± 1.26 %IA/g
Salivary glands uptake (LNCaP tumor-bearing mice [2]; [6]): 0.23 ± 0.05 %IA/g
Tumor uptake (LNCaP tumor-bearing mice [2]; [6]): 12.7 ± 1.91 %IA/g
